Among the targets are PIK3CG (human) (UniProt P48736); PIK3CB (Human) (UniProt P42338); PIK3CD (Human) (UniProt O00329).
Holding throughout (test): Enzyme Assay

Some results are limits rather than exact numbers.

Sequence of PIK3CD (Human) (O00329 whole entry, looked up): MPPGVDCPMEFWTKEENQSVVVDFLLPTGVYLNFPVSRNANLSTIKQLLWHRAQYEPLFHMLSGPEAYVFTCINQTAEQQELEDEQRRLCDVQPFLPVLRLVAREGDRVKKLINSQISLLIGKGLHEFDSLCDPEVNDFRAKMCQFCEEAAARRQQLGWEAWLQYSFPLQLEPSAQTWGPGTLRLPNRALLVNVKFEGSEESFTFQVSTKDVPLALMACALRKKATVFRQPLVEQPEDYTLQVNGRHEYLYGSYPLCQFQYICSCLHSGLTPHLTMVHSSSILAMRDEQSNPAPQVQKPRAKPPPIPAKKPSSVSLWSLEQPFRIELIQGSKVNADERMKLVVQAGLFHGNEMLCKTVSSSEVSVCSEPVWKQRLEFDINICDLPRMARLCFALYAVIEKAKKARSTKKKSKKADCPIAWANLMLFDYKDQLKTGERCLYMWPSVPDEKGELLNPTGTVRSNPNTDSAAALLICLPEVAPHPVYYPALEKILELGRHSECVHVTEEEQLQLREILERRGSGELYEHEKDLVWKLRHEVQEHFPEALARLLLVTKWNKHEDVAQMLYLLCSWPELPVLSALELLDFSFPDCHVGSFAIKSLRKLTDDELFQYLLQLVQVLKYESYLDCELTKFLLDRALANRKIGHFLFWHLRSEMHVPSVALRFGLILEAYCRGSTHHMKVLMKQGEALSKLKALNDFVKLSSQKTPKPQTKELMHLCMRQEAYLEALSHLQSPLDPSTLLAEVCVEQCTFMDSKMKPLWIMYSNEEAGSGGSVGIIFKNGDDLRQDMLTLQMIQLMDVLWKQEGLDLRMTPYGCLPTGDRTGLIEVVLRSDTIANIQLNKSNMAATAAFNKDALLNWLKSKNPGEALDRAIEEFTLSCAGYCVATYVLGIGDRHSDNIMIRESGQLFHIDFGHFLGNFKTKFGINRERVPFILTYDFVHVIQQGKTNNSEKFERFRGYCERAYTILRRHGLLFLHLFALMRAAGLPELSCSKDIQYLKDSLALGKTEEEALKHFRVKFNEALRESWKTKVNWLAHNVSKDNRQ
Sequence of PIK3CG (human) (P48736 whole entry, looked up): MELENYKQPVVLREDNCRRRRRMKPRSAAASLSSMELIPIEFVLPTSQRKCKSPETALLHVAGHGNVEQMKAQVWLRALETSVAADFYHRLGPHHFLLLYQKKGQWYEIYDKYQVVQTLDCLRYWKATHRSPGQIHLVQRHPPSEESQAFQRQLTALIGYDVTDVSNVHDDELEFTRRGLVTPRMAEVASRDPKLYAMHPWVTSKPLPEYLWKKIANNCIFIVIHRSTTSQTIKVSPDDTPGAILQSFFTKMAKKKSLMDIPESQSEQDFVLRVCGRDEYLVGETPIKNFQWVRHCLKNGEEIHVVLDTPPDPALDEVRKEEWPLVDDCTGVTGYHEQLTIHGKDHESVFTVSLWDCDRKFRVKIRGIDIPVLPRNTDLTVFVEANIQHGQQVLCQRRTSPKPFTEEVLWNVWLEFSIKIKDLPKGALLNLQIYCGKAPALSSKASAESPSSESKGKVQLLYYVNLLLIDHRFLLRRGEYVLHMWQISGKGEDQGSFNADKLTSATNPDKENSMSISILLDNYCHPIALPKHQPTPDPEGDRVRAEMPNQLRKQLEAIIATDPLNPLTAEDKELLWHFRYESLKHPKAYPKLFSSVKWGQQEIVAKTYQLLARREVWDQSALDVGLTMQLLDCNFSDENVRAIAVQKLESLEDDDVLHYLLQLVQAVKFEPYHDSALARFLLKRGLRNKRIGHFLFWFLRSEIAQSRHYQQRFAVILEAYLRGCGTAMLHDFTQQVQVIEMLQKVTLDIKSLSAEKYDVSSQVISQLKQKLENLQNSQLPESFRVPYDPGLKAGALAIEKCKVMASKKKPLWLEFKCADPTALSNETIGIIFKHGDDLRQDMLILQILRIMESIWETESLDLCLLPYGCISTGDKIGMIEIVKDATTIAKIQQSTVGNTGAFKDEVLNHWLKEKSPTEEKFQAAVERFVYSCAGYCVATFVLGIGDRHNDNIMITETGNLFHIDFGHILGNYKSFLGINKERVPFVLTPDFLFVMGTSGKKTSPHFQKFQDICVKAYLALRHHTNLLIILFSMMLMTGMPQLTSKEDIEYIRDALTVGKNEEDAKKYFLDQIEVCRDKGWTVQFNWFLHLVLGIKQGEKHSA
Sequence of PIK3CB (Human) (P42338 whole entry, looked up): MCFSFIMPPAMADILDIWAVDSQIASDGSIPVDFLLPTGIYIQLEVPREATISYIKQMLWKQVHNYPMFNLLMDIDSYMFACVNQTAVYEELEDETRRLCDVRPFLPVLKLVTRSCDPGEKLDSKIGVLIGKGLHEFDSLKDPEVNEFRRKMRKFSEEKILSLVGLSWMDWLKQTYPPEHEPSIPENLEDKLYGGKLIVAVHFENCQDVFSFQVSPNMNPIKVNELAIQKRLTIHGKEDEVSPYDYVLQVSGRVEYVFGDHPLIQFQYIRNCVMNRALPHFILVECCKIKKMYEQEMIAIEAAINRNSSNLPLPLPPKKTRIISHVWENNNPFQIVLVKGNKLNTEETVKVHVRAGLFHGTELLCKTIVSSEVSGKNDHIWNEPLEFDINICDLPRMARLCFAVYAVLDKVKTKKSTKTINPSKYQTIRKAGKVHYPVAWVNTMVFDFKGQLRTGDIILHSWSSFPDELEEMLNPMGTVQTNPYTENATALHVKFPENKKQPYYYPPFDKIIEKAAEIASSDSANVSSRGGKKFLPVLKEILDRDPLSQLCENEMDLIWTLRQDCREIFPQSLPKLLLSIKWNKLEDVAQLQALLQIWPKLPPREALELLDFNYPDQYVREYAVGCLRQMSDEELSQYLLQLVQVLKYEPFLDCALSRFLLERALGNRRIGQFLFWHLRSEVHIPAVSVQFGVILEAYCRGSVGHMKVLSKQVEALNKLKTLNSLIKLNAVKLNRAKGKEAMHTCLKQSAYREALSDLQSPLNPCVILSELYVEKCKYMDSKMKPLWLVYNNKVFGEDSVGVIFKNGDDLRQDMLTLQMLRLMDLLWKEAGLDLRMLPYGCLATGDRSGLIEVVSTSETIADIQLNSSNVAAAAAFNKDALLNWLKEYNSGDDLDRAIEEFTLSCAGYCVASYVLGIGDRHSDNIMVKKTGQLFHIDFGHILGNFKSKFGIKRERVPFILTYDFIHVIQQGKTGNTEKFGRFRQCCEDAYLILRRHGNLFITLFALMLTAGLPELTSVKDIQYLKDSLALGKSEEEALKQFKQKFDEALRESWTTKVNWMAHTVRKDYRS

Turning to `Nc1cnc(-n2c([C@@H](Nc3ncnc(N)c3Cl)C3CC3)nc3cccc(Cl)c3c2=O)cn1`, the IC50 (usually the concentration at which inhibition is half-maximal) against PIK3CG (human) is above 10 µM; against PIK3CB (Human), 0.72 µM.

For the compound `C[C@H](Nc1nc(N)nc(N)c1Cl)c1nc2c(Cl)cc(F)cc2c(=O)n1-c1cnc(N)cn1`, the IC50 is 0.5 µM on PIK3CD (Human), above 10 µM on PIK3CG (human) and 0.57 µM against PIK3CB (Human).

Turning to `C[C@H](Nc1nc(N)nc(N)c1Cl)c1nc2c(F)ccc(Cl)c2c(=O)n1-c1cnc(N)cn1`, the IC50 on PIK3CG (human) was above 10 µM.

For the compound `C[C@H](Nc1nc(N)nc(N)c1Cl)c1nc2c(F)cc(F)cc2c(=O)n1-c1cnc(N)cn1`, the figures for the IC50 at PIK3CD (Human), against PIK3CG (human) and at PIK3CB (Human) were 0.78 µM, above 10 µM and 0.53 µM, respectively.

As to `C[C@H](Nc1ncnc2[nH]nnc12)c1nc2c(F)cccc2c(=O)n1-c1cnc(N)cn1`, the IC50 on PIK3CG (human) and on PIK3CB (Human) was above 10 µM in each case.

Turning to `C[C@H](Nc1nc(N)nc(C(F)F)c1C#N)c1nc2c(Cl)cc(F)cc2c(=O)n1-c1cnc(N)cn1`, the IC50 against PIK3CD (Human) is 0.34 µM; on PIK3CG (human), above 10 µM; at PIK3CB (Human), 0.2 µM.

At PIK3CG (human), `C[C@H](Nc1nc(N)nc(N)c1Cl)c1nc2c(Cl)ccc(Cl)c2c(=O)n1-c1cnc(N)cn1` registered an IC50 above 10 µM.

In turn, `Nc1cnc(-n2c([C@@H](Nc3nc(N)nc(N)c3Cl)C3CC3)nc3c(Cl)ccc(Cl)c3c2=O)cn1` returned an IC50 on PIK3CG (human) above 10 µM.

On to `Nc1cnc(-n2c([C@@H](Nc3ncnc(N)c3Cl)C3CC3)nc3c(Cl)ccc(Cl)c3c2=O)cn1`, for which the results for the IC50 against PIK3CD (Human), against PIK3CG (human) and against PIK3CB (Human) were 0.026 µM, above 10 µM and 1.1 µM, respectively.

`C[C@H](Nc1ncnc(N)c1C#N)c1nc2c(F)ccc(Cl)c2c(=O)n1-c1cnc(N)cn1` showed an IC50 against PIK3CG (human) above 10 µM.

For the compound `C[C@H](Nc1ncnc2occc12)c1nc2c(F)ccc(Cl)c2c(=O)n1-c1cnc(N)cn1`, on PIK3CG (human), the IC50 was above 10 µM.

Take `C[C@H](Nc1ncnc(N)c1Cl)c1nc2cccc(Cl)c2c(=O)n1-c1cnc(N)cn1`: the 50% inhibitory concentration (IC50) at PIK3CD (Human) is 0.054 µM; on PIK3CG (human) it was above 10 µM; against PIK3CB (Human), 0.36 µM.

The compound `Nc1cnc(-n2c([C@@H](Nc3nc(N)nc(N)c3Cl)C3CC3)nc3cccc(Cl)c3c2=O)cn1` showed an IC50 on PIK3CG (human) above 10 µM.
